The values below come from PMC5766630, “Non-estrogenic Xanthohumol Derivatives Mitigate Insulin Resistance and Cognitive Impairment in High-Fat Diet-induced Obese Mice” (Scientific Reports, 2018).

The structures appear in SMILES notation.

The nature of data set [1]: LC-MS/MS analysis of XN, DXN and TXN in mouse liver, plasma and muscle. The format is in vivo. The conditions noted are these: for Plasma concentration, fold greater than combined XN + IX / Muscle concentration, fold greater than combined XN + IX / Liver concentration, fold greater than combined XN + IX: HFD mice, 30 mg/kg/day in diet, 13 weeks; for Muscle concentration, fold greater than combined XN + IX: hind leg skeletal muscle; for Liver concentration, fold greater than combined XN + IX: steady state. The source says: (§1) Nine-week old male C57BL/6J mice, obtained from The Jackson Laboratory (Bar Harbor, ME, USA), were housed individually in plastic cages under a 12–12-hr light-dark cycle. They were assigned randomly to four groups consisting of 12 mice each. One group (control) was fed a HFD (Dyets Inc., Bethlehem, PA, USA) containing 60%, 20% and 20% total calories from fat, carbohydrate and protein, respectively, and the other three groups were fed the HFD containing XN, DXN, or TXN. The test compounds were dissolved in an isotropic mixture of oleic acid:propylene glycol:Tween 80, 0.9:1:1 by weight (OPT) before incorporation into the HFD. The control diet contained an identical amount of OPT. All diets were prepared in pellet form by Dyets, Inc. (Bethlehem, PA, USA). The mouse diets were formulated to deliver a dose of 30 mg test compound per kg body weight per day. Food intake was measured three times per week and body weights were recorded weekly. At the end of 13 weeks of feeding, the mice were euthanized and blood, liver and skeletal muscle were collected for analyses. All animal protocols were approved by Institutional Animal Care and Use Committee (IACUC) at Oregon State University. Animal experiments were carried out in accordance with the relevant guidelines and regulations.
Liver and plasma from each mouse were subjected to enzymatic hydrolysis, extracted and analyzed using the paper strip extraction technique as previously described[36],[96]. For skeletal muscle, approximately 200 mg of frozen muscle tissue were placed into tubes containing ceramic beads (1.4 mm Ceramic, Bulk Beads, Fisher Scientific, Pittsburgh, PA, USA) and methanol:water (90:10; 500 μL/200 mg tissue) and homogenized using a Precellys 24 (PEQLAB Biotechnology GmbH, Germany). The tissue was homogenized for 3 × 30 sec at 6,500 rpm with 20 sec intervals and then centrifuged at 15,700 × g for 10 minutes and 100 μl of supernatant was used for the paper strip extraction as previously described[36],[96]. Concentrations of XN, DXN and TXN were calculated using an internal standard, 2′,4-dihydroxychalcone (DHC), with matrix-based calibration curves and Analyst Software (Analyst 1.5, AB Sciex, Foster City, CA, USA). Samples were analyzed by LC-MS/MS using an AB Sciex 4000 Q-trap triple quadrupole mass spectrometer using a source temperature of 600 °C and a needle voltage of −4500 V. The source, curtain and collision gases were all nitrogen. Analytes were separated by high performance liquid chromatography (HPLC) using a 2.1 × 50 mm Agilent Zorbax 300 SB – C8 3.5 µm column (Agilent, Santa Clara, CA, USA). The elution gradient was 25 to 60% solvent B (0.1% formic acid in acetonitrile) in solvent A (aqueous 0.1% formic acid) in 2.6 minutes using a flow rate of 0.5 ml/min after an initial 1.4 min at 25% solvent B. The gradient was then increased to 100% solvent B in 0.1 min and held at 100% B for 1.4 min, then dropped to 25% B in 0.25 minutes, followed by re-equilibration with 25% B for 9.25 minutes. SRM transitions for quantification were: m/z 353 → 119 for XN, m/z 353 → 233 for IX, m/z 339 → 219 for 8-PN, m/z 355 → 249 for DXN, m/z 357 → 251 for TXN, and m/z 239 → 119 for DHC.

The subject of data set [2] is C57BL/6J mice fed a high-fat diet. The experiment in a line: 13-week HFD feeding study: body weight, food intake, liver weight, metabolic parameters. The format is in vivo, mouse. The conditions noted are these: 13 weeks; for Body weight gain / HOMA-IR / Fasting plasma glucose / Feed efficiency / Food intake / Liver weight / Plasma cholesterol / Plasma insulin / Plasma leptin / Plasma triglycerides: male C57BL/6J mice, HFD, mean ± SE; for Body weight gain: 30 mg/kg body weight/day in diet; for Body weight gain / Fasting plasma glucose / Feed efficiency / Food intake / Liver weight / Plasma cholesterol / Plasma insulin / Plasma leptin / Plasma triglycerides: n = 11–12; for HOMA-IR / Fasting plasma glucose / Feed efficiency / Food intake / Liver weight / Plasma cholesterol / Plasma insulin / Plasma leptin / Plasma triglycerides: 30 mg/kg/day in diet; for HOMA-IR: insulin (mU/L) × glucose (mmol/L)/22.5.
Text: as §1
Plasma triglycerides and total cholesterol were analyzed with commercially available kits (Fisher-Scientific, Pittsburgh, PA, USA). Plasma glucose was analyzed by a test kit obtained from Wako Diagnostics (Mountain View, CA, USA). Plasma insulin and leptin were analyzed by ELISA kits purchased from Alpco Diagnostics (Salem, NH, USA) and Crystal Chem (Downers Grove, IL, USA), respectively. Homeostasis Model Assessment of Insulin Resistance (HOMA-IR) was calculated as follows: fasting plasma insulin concentration (mU/L) × fasting plasma glucose level (mmol/L)/22.5[95]. Plasma levels of AST and ALT were measured using commercially-available kits (Bioo Scientific Corp., Austin, TX, USA) as indicators of in vivo liver toxicity.
Body weight, food intake, and metabolic measurements: data were analyzed using a one-way ANOVA in PROC GLM for single measures within animals (i.e., liver, plasma, and muscle metabolic measures) and a repeated-measures-in-time design ANOVA in PROC MIXED for repeated measures within animals (i.e., body weight, feed intake, and feed efficiency). The area-under-the-curve (AUC) for the glucose tolerance tests were calculated using the trapezoidal rule. Before statistical analysis, data were examined for variance homogeneity and normality. To achieve normality, liver, plasma, and muscle XN data and plasma insulin data were natural log-transformed. For statistical comparisons, the control group was compared with each XN metabolite group.

The target in data set [3] is T1, full-length purified human estrogen receptor ERβ (Homo sapiens, UniProt Q92731).
T1 construct: full-length purified human estrogen receptors ERα and ERβ
T1 sequence (Q92731 whole entry): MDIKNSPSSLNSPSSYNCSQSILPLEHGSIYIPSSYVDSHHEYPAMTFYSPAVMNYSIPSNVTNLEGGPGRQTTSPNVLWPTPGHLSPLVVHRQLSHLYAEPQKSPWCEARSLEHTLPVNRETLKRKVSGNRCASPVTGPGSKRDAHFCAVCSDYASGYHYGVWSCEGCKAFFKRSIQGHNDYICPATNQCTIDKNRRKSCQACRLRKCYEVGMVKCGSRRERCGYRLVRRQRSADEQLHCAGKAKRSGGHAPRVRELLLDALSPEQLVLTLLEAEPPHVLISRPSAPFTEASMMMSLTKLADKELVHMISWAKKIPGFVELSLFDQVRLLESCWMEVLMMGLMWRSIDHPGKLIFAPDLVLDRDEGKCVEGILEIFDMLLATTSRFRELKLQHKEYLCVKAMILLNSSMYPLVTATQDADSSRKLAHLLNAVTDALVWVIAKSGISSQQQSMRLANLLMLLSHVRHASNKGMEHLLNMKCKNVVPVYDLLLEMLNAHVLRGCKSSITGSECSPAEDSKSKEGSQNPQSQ
The experiment in a line: ERβ competitive radiometric binding assay. The settings on record: RBA = IC50[estradiol]/IC50[compound] × 100, estradiol = 100; 2 nM [3H]-estradiol tracer, 18–24 h at 0 °C. As for the experimental part: . The receptors and ligands were incubated for 18–24 h at 0 °C and then the receptor–ligand complexes separated using hydroxyapatite (BioRad, Hercules, CA, USA). […]

Another data set concerns human LDL. Also noted: method as in PMID 14565769. The conditions noted are these: cited from earlier work.
For a further data set, the system named is quinone reductase. Also noted: method as in PMID 10737704. The settings on record: cited from earlier work.
The next data set relates to mice. The settings on record: cited from earlier work.
Another data set deals with HFD-fed C57BL/6 J mice. Set-up: method as in PMID 26976708. The conditions noted are these: oral, 60 mg/kg/day; cited from earlier work.

With `COc1cc(O)c(CC=C(C)C)c(O)c1C(=O)CCc1ccc(O)cc1` [DXN, α,β-Dihydroxanthohumol], in data set [1], the “Plasma concentration, fold greater than combined XN + IX” value was found to be 7 fold; the “Muscle concentration, fold greater than combined XN + IX” value was 7 fold; the “Liver concentration, fold greater than combined XN + IX” value worked out at 6 fold. Also, the “Plasma leptin concentration, change compared with controls” value in data set [2] (HFD mice, 30 mg/kg/day) is reported as −26%. In data set [2], the Body weight gain was found to be 15.1 ± 1.3 g, the HOMA-IR is 22.0 ± 5.2, the Fasting plasma glucose is recorded as 150 ± 13.0 mg/dL and the Feed efficiency is given as 0.062 ± 0.006 g weight gain/g food intake. In addition, in data set [2], the Food intake amounted to 2.66 ± 0.09 g/day, the Liver weight is 1.11 ± 0.07 g, the Plasma cholesterol amounted to 167 ± 8.5 mg/dL and the Plasma insulin was 2.08 ± 0.69 ng/mL. Moreover, in data set [2], the Plasma leptin is reported as 8.48 ± 1.00 ng/mL and the Plasma triglycerides is given as 84.4 ± 4.9 mg/dL. The “RBA ERβ (relative binding affinity)” value in data set [3] amounted to 0.009 ± 0.002.
`COc1cc(O)c(CCC(C)C)c(O)c1C(=O)CCc1ccc(O)cc1` [TXN, tetrahydroxanthohumol]: in data set [1], the “Plasma concentration, fold greater than combined XN + IX” value worked out at 10 fold; the “Muscle concentration, fold greater than combined XN + IX” value is recorded as 5 fold; the “Liver concentration, fold greater than combined XN + IX” value came out at 12 fold. Further, the concentration at 13 weeks in data set [1] (male, C57BL/6J, mouse, liver, oral dosing at 30 mg/kg/day, read-out: Liver concentration (highest measured)) was 5 µM. Further, in data set [1] (mouse dose of 30 mg/kg/day), the “Liver tissue concentration (highest measured)” value is reported as 5 nmol/g. Moreover, in data set [2] (HFD mice, 30 mg/kg/day), the “HOMA-IR index as % of control mice” value is 13 % of control mice; the “Liver weight, change compared with controls” value is listed as −21%; the “Plasma insulin, change compared with controls” value is −82%; the “Plasma leptin concentration, change compared with controls” value is −44%. For the same molecule, in data set [2], the Body weight gain turned out to be 9.70 ± 1.4 g, the HOMA-IR was 4.10 ± 0.3, the Fasting plasma glucose is listed as 118 ± 7.2 mg/dL and the Feed efficiency is on record as 0.042 ± 0.006 g weight gain/g food intake. In data set [2], this molecule yielded a Food intake of 2.51 ± 0.09 g/day, a Liver weight of 0.93 ± 0.07 g, a Plasma cholesterol of 167 ± 8.9 mg/dL and a Plasma insulin of 0.49 ± 0.08 ng/mL. Besides, in data set [2], the Plasma leptin came to 6.39 ± 1.04 ng/mL and the Plasma triglycerides came out at 79.3 ± 7.8 mg/dL. Besides, in the data set on human LDL, the “Inhibition of SIN-1-induced lipid peroxidation of human LDL” value is “little or negligible protection”. The “RBA ERβ (relative binding affinity)” value in data set [3] turned out to be 0.009 ± 0.002.
On to `COc1cc(O)c(CC=C(C)C)c(O)c1C(=O)/C=C/c1ccc(O)cc1` [XN, 3′-[3,3-dimethylallyl]-2′,4′,4-trihydroxy-6′-methoxychalcone], for which, in the data set with quinone reductase, the “Induction of quinone reductase” value is “potent inducer”. Also, the “Dose with no detectable toxicity” value with mice is on record as “at least 1,000 mg/kg”. Besides, in the data set on HFD-fed C57BL/6 J mice, the “HOMA-IR, change vs vehicle/HFD controls” value is −52%; the “Interleukin-6 (IL-6), change vs vehicle/HFD controls” value was −78%; the “Leptin, change vs vehicle/HFD controls” value is given as −41%; the “Plasma LDL-c, change vs vehicle/HFD controls” value is listed as −80%. Also, the “Plasma PCSK9, change vs vehicle/HFD controls” value in the data set on HFD-fed C57BL/6 J mice is −44%. Besides, in data set [2], the Body weight gain is listed as 16.1 ± 1.3 g, the HOMA-IR is 31.3 ± 1.7, the Fasting plasma glucose amounted to 169 ± 8.3 mg/dL and the Feed efficiency is reported as 0.068 ± 0.006 g weight gain/g food intake. For the same molecule, in data set [2], the Food intake is 2.59 ± 0.09 g/day, the Liver weight turned out to be 1.14 ± 0.07 g, the Plasma cholesterol was 196 ± 8.5 mg/dL and the Plasma insulin amounted to 2.61 ± 0.65 ng/mL. Besides, in data set [2], the Plasma leptin is recorded as 10.6 ± 1.00 ng/mL and the Plasma triglycerides is listed as 80.6 ± 4.2 mg/dL. The “Inhibition of SIN-1-induced lipid peroxidation of human LDL” value in the data set on human LDL was “effectively inhibits”. The “RBA ERβ (relative binding affinity)” value in data set [3] came to 0.003 ± 0.001.
